Measurements: ChEMBL document CHEMBL4732232, “Protease targeted COVID-19 drug discovery: What we have learned from the past SARS-CoV inhibitors?” (Eur J Med Chem, 2021)
pIC50, pKi: −log10 of the molar value.

What was measured:
[1] = Inhibition of SARS CoV His-tagged 3C-like protease expressed in Escherichia coli BL21 using Dabcyl-KTSAVLQ-SGFRKME-Edans as substrate by Lineweaver-Burk analysis; parameters: species or system Severe acute respiratory syndrome-related coronavirus
[2] = Inhibition of SARS CoV 3C-like protease; parameters: species or system Severe acute respiratory syndrome-related coronavirus
[3] = Inhibition of SARS CoV HKU3984 His-tagged 3C-like protease using H2N-TSAVLQSGFRKW-COOH as substrate by HPLC method; parameters: species or system Severe acute respiratory syndrome-related coronavirus
[4] = Inhibition of SARS CoV papain-like protease using Arg-Leu-Arg-Gly-Gly-AMC as substrate by fluorescence method; parameters: species or system Severe acute respiratory syndrome-related coronavirus
[5] = Inhibition of SARS CoV 3C-like protease using 12-mer fluorogenic peptide Dabcyl-KNSTLQSGLRKE-Edans as substrate incubated for 60 mins by fluorometric assay; parameters: species or system Severe acute respiratory syndrome-related coronavirus
[6] = Inhibition of MERS CoV 3C-like protease using Dabcyl-KTSAVLQSGFRKME-Edans as substrate by fluorometric assay; parameters: species or system Middle East respiratory syndrome-related coronavirus
[7] = Inhibition of SARS CoV 3C-like protease using Dabcyl-KTSAVLQSGFRKME-Edans as substrate by fluorometric assay; parameters: species or system Severe acute respiratory syndrome-related coronavirus
[8] = Competitive inhibition of SARS CoV 3C-like protease using fluorogenic substrate by Lineweaver-Burk plot analysis; parameters: species or system Severe acute respiratory syndrome-related coronavirus
[9] = Inhibition of SARS CoV 3C-like protease expressed in Escherichia coli GJ1158 using 2-aminobenzoyl-SVTLQSG-Tyr(NO2)-R as substrate by FRET assay; parameters: species or system Severe acute respiratory syndrome-related coronavirus
[10] = tested on: Severe acute respiratory syndrome-related coronavirus; test: Irreversible inhibition of SARS CoV 3C-like protease assessed as ratio of Kinact to Ki using Abz-Ser-Val-Thr-Leu-Gln-Ser-Gly-(NO2)Tyr-Arg as substrate by fluorescence method
[11] = Inhibition of SARS CoV 3C-like protease using Abz-SVTLQSG-Tyr(NO2)R as substrate by fluorescence method; parameters: species or system Severe acute respiratory syndrome-related coronavirus

## CC(C)[C@H](NC(=O)[C@H](C)NC(=O)OCc1ccccc1)C(=O)C[C@@H](Cc1ccccc1)[C@@H](O)[C@H](O)[C@H](Cc1ccccc1)NC(=O)[C@@H](NC(=O)[C@H](C)NC(=O)OCc1ccccc1)C(C)C
[1]
  pKi: 6.22

## O=C(/C=C/c1ccccc1)N[C@@H](Cc1ccccc1)C(=O)N[C@@H](C[C@@H]1CCNC1=O)C(=O)C(=O)NCc1ccccc1
[2]
  pIC50: 5.71

## CC1=C(C(=O)OCCc2ccccc2)C(c2ccccc2[N+](=O)[O-])C2=C(CCCC2=O)N1 (configuration not stated)
[3]
  pIC50: 5.60

## O=C(/C=C/CCc1ccc(O)c(O)c1)CCc1ccc(O)c(O)c1 [DEHYDROHIRSUTANONOL]
[4]
  pIC50: 5.39
[5]
  pIC50: 4.44

## O=C(/C=C/c1ccccc1)N[C@@H](CC1CCCCC1)C(=O)N[C@@H](C[C@@H]1CCNC1=O)C(=O)C(=O)NCc1ccccc1
[2]
  pIC50: 6.15

## O=C[C@@H](C[C@H]1CCNC1=O)NC(=O)[C@@H](Cc1ccccc1)NC(=O)/C=C/c1ccc(Cl)cc1F
[6]
  pIC50: 5.33
[7]
  pIC50: 6.70

## CC(C)[C@H](NC(=O)[C@H](C)NC(=O)OCc1ccccc1)C(=O)C[C@@H](Cc1c[nH]c2ccccc12)[C@@H](O)[C@H](O)[C@H](Cc1c[nH]c2ccccc12)NC(=O)[C@@H](NC(=O)[C@H](C)NC(=O)OCc1ccccc1)C(C)C
[8]
  pKi: 7.14

## Cc1ccc2nc(-c3ccc(N)cc3)sc2c1S(=O)(=O)O
[9]
  pIC50: 5.37

## CCOC(=O)C1OC1C(=O)N(CCC(N)=O)NC(=O)[C@H](Cc1ccccc1)NC(=O)[C@H](CC(C)C)NC(=O)OCc1ccccc1 (some centres not stated)
[10]
  Ratio: 1900 M⁻¹ s⁻¹

## CC(=O)N[C@H](C(=O)N[C@H](C(=O)N[C@@H](CC(C)C)C(=O)N[C@@H](C[C@@H]1CCNC1=O)C(=O)CN1Cc2cccc([N+](=O)[O-])c2C(=O)N1)[C@@H](C)OCc1ccccc1)C(C)C
[11]
  pIC50: 6.22
